Read-outs that look alike come from different tables or passages of the source.
Target: T1, c-kit (Homo sapiens, UniProt P10721)
T1 construct: human Mo7e cells which endogenously express c-kit; endogenous in cells; host or cells: human Mo7e cells (promegakaryocytic leukemia line), stimulated with human recombinant SCF
Experiment: Mo7e cell proliferation assay (SCF dependent proliferation)
Assay type: cell-based
Conditions: human Mo7e cells stimulated with SCF, 48 hours, CellTiter Glo, 1% FBS
In short: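 Human Mo7e cells with endogenous c-kit, proliferation driven by SCF, 384-well format. After 48 h at 37 °C viability read by CellTiter-Glo luminescence. IC50 taken as concentration giving response halfway between baseline and maximum.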

[1] = Table 1, read-out: c-kit (Mo7e)
[2] = Table 2, read-out: c-kit (Mo7e)

T1 sequence (P10721 26-976): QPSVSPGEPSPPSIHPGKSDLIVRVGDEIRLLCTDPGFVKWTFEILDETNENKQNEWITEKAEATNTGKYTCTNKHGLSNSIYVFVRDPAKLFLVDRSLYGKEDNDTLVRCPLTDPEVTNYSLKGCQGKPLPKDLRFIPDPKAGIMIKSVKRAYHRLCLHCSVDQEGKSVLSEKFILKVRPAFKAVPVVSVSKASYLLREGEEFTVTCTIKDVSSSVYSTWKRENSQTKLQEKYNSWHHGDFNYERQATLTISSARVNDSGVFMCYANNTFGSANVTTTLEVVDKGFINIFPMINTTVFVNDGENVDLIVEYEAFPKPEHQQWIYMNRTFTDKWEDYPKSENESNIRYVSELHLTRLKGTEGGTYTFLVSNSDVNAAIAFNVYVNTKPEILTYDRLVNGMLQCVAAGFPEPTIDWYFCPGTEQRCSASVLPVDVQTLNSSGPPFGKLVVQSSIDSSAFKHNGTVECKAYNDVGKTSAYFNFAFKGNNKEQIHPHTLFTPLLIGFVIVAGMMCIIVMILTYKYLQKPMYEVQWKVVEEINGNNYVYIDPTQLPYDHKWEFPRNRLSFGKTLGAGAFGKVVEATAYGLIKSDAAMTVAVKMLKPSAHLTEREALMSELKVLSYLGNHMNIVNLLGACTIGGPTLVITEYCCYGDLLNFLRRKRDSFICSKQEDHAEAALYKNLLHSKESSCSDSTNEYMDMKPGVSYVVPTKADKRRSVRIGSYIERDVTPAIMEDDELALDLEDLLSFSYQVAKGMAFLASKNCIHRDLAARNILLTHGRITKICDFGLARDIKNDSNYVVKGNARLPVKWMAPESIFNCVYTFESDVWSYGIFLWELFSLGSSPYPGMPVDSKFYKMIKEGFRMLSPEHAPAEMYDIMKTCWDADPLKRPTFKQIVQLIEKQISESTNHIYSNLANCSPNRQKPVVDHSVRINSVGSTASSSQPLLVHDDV

| Structure (SMILES) | IC50 [1] | IC50 [2] | further results |
| --- | --- | --- | --- |
| CC(C)(C)OC(=O)N1CC(c2nc(-c3ccc(F)c(NC(=O)c4cnc5ccccn45)c3)no2)C1 [F27, tert-butyl 3-(3-(4-fluoro-3-(imidazo[1,2-a]pyridine-3-carboxamido)phenyl)-1,2,4-oxadiazol-5-yl)azetidine-1-carboxylate] | 0.997 µM | – | – |
| Cc1ccc2ncc(C(=O)Nc3cc(-c4noc(N5CC(O)(C(F)(F)F)C5)n4)ccc3C)n2c1 [F6] | 0.026 µM | – | – |
| Cc1ccc(-c2noc(C3CCC(F)(F)CO3)n2)cc1NC(=O)c1cnc2ccccn12 (stereo not drawn) [F10, N-(5-(5-(5,5-difluorotetrahydro-2H-pyran-2-yl)-1,2,4-oxadiazol-3-yl)-2-methylphenyl)imidazo[1,2-a]pyridine-3-carboxamide] | – | – | IC50 (c-kit (Mo7e) μM, Table 1): 0.023 µM |
| Cc1ccc(-c2noc(C3CN(C(=O)OC(C)(C)C)C3)n2)cc1NC(=O)c1cnc2ccccn12 [F13, tert-butyl 3-(3-(3-(imidazo[1,2-a]pyridine-3-carboxamido)-4-methylphenyl)-1,2,4-oxadiazol-5-yl)azetidine-1-carboxylate] | 0.623 µM | – | – |
| Cc1ccc(-c2noc(C3CN(S(C)(=O)=O)CCO3)n2)cc1NC(=O)c1cnc2ccccn12 (stereo not drawn) [F35] | 0.066 µM | – | – |
| Cc1ccc(-c2noc(C3CN(S(=O)(=O)C4CCOCC4)C3)n2)cc1NC(=O)c1cnc2ccccn12 [F160] | – | 0.38 µM | – |
| COC(=O)N1CC(c2nc(-c3ccc(C)c(NC(=O)c4cnc5cc(CCC(C)=O)ccn45)c3)no2)C1 [F73, methyl 3-(3-(4-methyl-3-(7-(3-oxobutyl)imidazo[1,2-a]pyridine-3-carboxamido)phenyl)-1,2,4-oxadiazol-5-yl)azetidine-1-carboxylate] | 0.03 µM | – | – |
| COC(=O)N1CC(c2nc(-c3ccc(C)c(NC(=O)c4cnc5ccc(CCCc6nn[nH]n6)cn45)c3)no2)C1 [F310] | – | > 10 µM | – |
| Cc1ccc(-c2nc(N3CCOCC3)no2)cc1NC(=O)c1cnc2ccccn12 [F75, N-(2-methyl-5-(3-morpholino-1,2,4-oxadiazol-5-yl)phenyl)imidazo[1,2-a]pyridine-3-carboxamide] | 0.061 µM | – | – |
| Cc1ccc(-c2noc(C3CN(C(=O)C(F)(F)F)C3)n2)cc1NC(=O)c1cnc2ccccn12 [F230] | – | 0.217 µM | – |
| COC(=O)N1CC(c2nc(-c3ccc(C)c(NC(=O)c4cnc5ccc(N6CCOCC6)cn45)c3)no2)C1 [F83] | 0.04 µM | – | – |
| COC1CN(C(=O)OCc2nc(-c3ccc(C)c(NC(=O)c4cnc5ccccn45)c3)no2)C1 [F138] | – | 0.27 µM | – |
| Cc1ccc(-c2noc([C@H]3CCC(F)(F)CO3)n2)cc1NC(=O)c1cnc2ccccn12 [F12] | 0.032 µM | – | – |
| Cc1ccc(-c2noc(C3C[C@@H](O)CN3S(C)(=O)=O)n2)cc1NC(=O)c1cnc2ccc(F)cn12 (stereo partly drawn) [F272] | – | 1.14 µM | – |
| Cc1ccc(-c2noc(CN3CCOC3=O)n2)cc1NC(=O)c1cnc2ccccn12 [F142] | – | 0.578 µM | – |
| COC(=O)N1CC(c2nc(-c3ccc(C)c(NC(=O)c4cnc5ccc(C(F)(F)F)cn45)c3)no2)C1 [F233] | – | 0.218 µM | – |
| Cc1ccc(-c2noc(C3CCOC3)n2)cc1NC(=O)c1cnc2ccccn12 (stereo not drawn) [F7] | 0.078 µM | – | – |
| Cc1ccc(-c2noc([C@@H]3CCCN3S(C)(=O)=O)n2)cc1NC(=O)c1cnc2ccccn12 [F36] | 0.093 µM | – | – |
| COC(=O)N1CC(c2nc(-c3ccc(C)c(NC(=O)c4cnc5ccc(CCC(C)=O)cn45)c3)no2)C1 [F65, methyl 3-(3-(4-methyl-3-(6-(3-oxobutyl)imidazo[1,2-a]pyridine-3-carboxamido)phenyl)-1,2,4-oxadiazol-5-yl)azetidine-1-carboxylate] | 0.033 µM | – | – |
| CCS(=O)(=O)N1CC(c2nc(-c3ccc(C)c(NC(=O)c4cnc5ccccn45)c3)no2)C1 [F19] | 0.033 µM | – | – |
| Cc1ccc(-c2noc([C@@H](C)N3CC(F)(F)C3)n2)cc1NC(=O)c1cnc2ccccn12 [F226] | – | 0.112 µM | – |

| Structure (SMILES) | IC50 [1] | IC50 [2] | further results |
| --- | --- | --- | --- |
| Cc1ccc(-c2noc(C3CCCCN3)n2)cc1NC(=O)c1cnc2ccccn12 (stereo not drawn) [F109] | – | 0.215 µM | – |
| CC(=O)N1CCO[C@@H](c2nc(-c3ccc(C)c(NC(=O)c4cnc5ccccn45)c3)no2)C1 [F199] | – | 0.509 µM | – |
| Cc1cc(F)c(-c2noc(C3CN(C(=O)OC(C)(C)C)C3)n2)cc1NC(=O)c1cnc2ccccn12 [F279] | – | 1.28 µM | – |
| O=C(Nc1cc(-c2noc(CN3CCC(F)(F)CC3)n2)ccc1F)c1cnc2ccccn12 [F46] | 0.073 µM | – | – |
| COC(=O)N1CC[C@@H](Cc2nc(-c3ccc(C)c(NC(=O)c4cnc5ccccn45)c3)no2)C1 [F204] | – | 0.2 µM | – |
| O=C(Nc1cc(-c2noc(CN3CC(F)(F)C3)n2)ccc1F)c1cnc2ccccn12 [F228] | – | 0.341 µM | – |
| Cc1ccc(-c2noc(C3C[C@H](O)CN3)n2)cc1NC(=O)c1cnc2ccc(F)cn12 (stereo partly drawn) [F306] | – | 8.37 µM | – |
| Cc1ccc(-c2noc([C@@H]3CCCN(S(C)(=O)=O)C3)n2)cc1NC(=O)c1cnc2ccccn12 [F39] | 0.049 µM | – | – |
| Cc1ccc(Nc2noc(C3CCCCO3)n2)cc1NC(=O)c1cnc2ccccn12 (stereo not drawn) [F70] | 0.006 µM | – | – |
| Cc1ccc(-c2noc(C3CCCNC3)n2)cc1NC(=O)c1cnc2ccccn12 (stereo not drawn) [F274] | – | 1.2 µM | – |
| Cc1ccc(-c2noc(C3CNCCO3)n2)cc1NC(=O)c1cnc2ccccn12 (stereo not drawn) [F188] | – | 0.399 µM | – |
| COC(=O)N1CC(c2nc(-c3ccc(C)c(NC(=O)c4cnc5cc(C)ccn45)c3)no2)C1 [F61, methyl 3-(3-(4-methyl-3-(7-methylimidazo[1,2-a]pyridine-3-carboxamido)phenyl)-1,2,4-oxadiazol-5-yl)azetidine-1-carboxylate] | 0.026 µM | – | – |
| Cc1ccc(-c2noc([C@H]3CCCN3C(=O)OC(C)(C)C)n2)cc1NC(=O)c1cnc2ccccn12 [F278] | – | 1.28 µM | – |
| Cc1ccc(-c2noc(C3CN(C(=O)OCC(F)F)C3)n2)cc1NC(=O)c1cnc2ccccn12 [F259] | – | 0.177 µM | – |
| CCS(=O)(=O)N1CC(c2nc(-c3ccc(F)c(NC(=O)c4cnc5ccccn45)c3)no2)C1 [F155] | – | 0.12 µM | – |
| COC(=O)N1CC(c2nc(-c3ccc(C)c(NC(=O)c4cnc5ccc(C(C)=O)cn45)c3)no2)C1 [F245] | – | 0.178 µM | – |
| CC(=O)N1CC(c2nc(-c3ccc(C)c(NC(=O)c4cnc5ccccn45)c3)no2)C1 [F115] | – | 0.464 µM | – |
| Cc1ccc(-c2noc(CNC(=O)CC3CCCO3)n2)cc1NC(=O)c1cnc2ccccn12 (stereo not drawn) [F145] | – | 0.447 µM | – |
| Cc1ccc(-c2noc(NC3CCOCC3)n2)cc1NC(=O)c1cnc2cc(F)ccn12 [F81] | 0.084 µM | – | – |
| Cc1ccn2c(C(=O)Nc3cc(-c4noc(N5CCC(F)CC5)n4)ccc3C)cnc2c1 [F90] | 0.033 µM | – | – |
| Cc1ccc(-c2noc([C@@H]3CCN3C(=O)OC(C)(C)C)n2)cc1NC(=O)c1cnc2ccccn12 [F24] | 0.08 µM | – | – |

| Structure (SMILES) | IC50 [1] | IC50 [2] | further results |
| --- | --- | --- | --- |
| Cc1ccc(-c2nc(C3CN(C(=O)OC(C)(C)C)C3)no2)cc1NC(=O)c1cnc2ccccn12 [F300] | – | 3.56 µM | – |
| COC(=O)N1CC(c2nc(-c3ccc(C)c(NC(=O)c4cnc5cc(C(F)(F)F)ccn45)c3)no2)C1 [F57, methyl 3-(3-(4-methyl-3-(7-(trifluoromethyl)imidazo[1,2-a]pyridine-3-carboxamido)phenyl)-1,2,4-oxadiazol-5-yl)azetidine-1-carboxylate] | 0.13 µM | – | – |
| Cc1ccc(-c2nc(N3CC(F)(F)C3)no2)cc1NC(=O)c1cnc2ccccn12 [F2] | 0.013 µM | – | – |
| COCC(=O)NC1(c2nc(-c3ccc(C)c(NC(=O)c4cnc5ccccn45)c3)no2)COC1 [F141] | – | 0.7 µM | – |
| Cc1ccc(-c2noc(C3CN(S(C)(=O)=O)C3)n2)cc1NC(=O)c1cnc2ccccn12 [F14] | 0.042 µM | – | – |
| Cc1ccc(-c2noc(C3CN(S(=O)(=O)c4cnn(C)c4)C3)n2)cc1NC(=O)c1cnc2ccccn12 [F217] | – | 0.173 µM | – |
| Cc1ccn2c(C(=O)Nc3cc(-c4noc(N5CC(C)(O)C5)n4)ccc3C)cnc2c1 [F88] | 0.062 µM | – | – |
| COCC(c1nc(-c2ccc(C)c(NC(=O)c3cnc4ccccn34)c2)no1)N1CCC(F)(F)C1 (stereo not drawn) [F237] | – | 0.109 µM | – |
| Cc1ccc(-c2noc([C@H]3CNCCO3)n2)cc1NC(=O)c1cnc2ccccn12 [F189] | – | 0.824 µM | – |
| COC(=O)N1CC(c2nc(-c3ccc(C)c(NC(=O)c4cnc5cc(CCC(C)(C)O)ccn45)c3)no2)C1 [F74, methyl 3-(3-(3-(7-(3-hydroxy-3-methylbutyl)imidazo[1,2-a]pyridine-3-carboxamido)-4-methylphenyl)-1,2,4-oxadiazol-5-yl)azetidine-1-carboxylate] | 0.051 µM | – | – |
| Cc1ccc(-c2noc([C@@H]3CN(C(=O)OC(C)(C)C)CCO3)n2)cc1NC(=O)c1cnc2ccccn12 [F122] | – | 0.296 µM | – |
| Cc1ccc(-c2noc([C@H]3CCCN3S(C)(=O)=O)n2)cc1NC(=O)c1cnc2ccccn12 [F213] | – | 0.137 µM | – |
| COC(=O)N1CC(c2nc(-c3cc(NC(=O)c4cnc5ccccn45)c(C)cc3F)no2)C1 [F231] | – | 0.439 µM | – |
| Cc1ccn2c(C(=O)Nc3cc(-c4noc(N5CCC(F)(F)CC5)n4)ccc3C)cnc2c1 [F89] | 0.031 µM | – | – |
| COC(=O)N1CC(c2nc(-c3ccc(C)c(NC(=O)c4cnc5ccc(-n6ccnc6)cn45)c3)no2)C1 [F252] | – | 0.421 µM | – |
| Cc1ccc(-c2noc(C3CCO3)n2)cc1NC(=O)c1cnc2ccccn12 (stereo not drawn) [F263] | – | 0.35 µM | – |
| Cc1ccn2c(C(=O)Nc3cc(-c4noc(N5CC(S(C)(=O)=O)C5)n4)ccc3C)cnc2c1 [F281] | – | 1.37 µM | – |
| COC(=O)N1CC(c2nc(-c3ccc(C)c(NC(=O)c4cnc5ccc(CCC#N)cn45)c3)no2)C1 [F64, methyl 3-(3-(3-(6-(2-cyanoethyl)imidazo[1,2-a]pyridine-3-carboxamido)-4-methylphenyl)-1,2,4-oxadiazol-5-yl)azetidine-1-carboxylate] | 0.064 µM | – | – |
| Cc1ccc(-c2noc(C3CN(S(=O)(=O)NC(=O)OC(C)(C)C)C3)n2)cc1NC(=O)c1cnc2ccccn12 [F133] | – | 0.138 µM | – |
| Cc1ccc(-c2nc(N3C[C@@H]4C[C@H]3CO4)no2)cc1NC(=O)c1cnc2ccccn12 [F94] | 0.092 µM | – | – |
| CC(=O)N1CC(F)(F)C[C@H]1c1nc(-c2ccc(C)c(NC(=O)c3cnc4ccccn34)c2)no1 [F173] | – | 0.212 µM | – |

— patent US8754071B2 (priority 2011, dated 2014)
